Measured values reported in ChEMBL document CHEMBL1201862, “PubChem BioAssay data set” (2004).
Active and inactive are the calls of the source.

Tests used:
[1] = Luminescence Cell-Based Dose Response HTS to Identify Inhibitors of 5'UTR Stem-Loop Driven Prion Protein mRNA Translation in H4 Neuroglioblastoma Cells. [Related pubchem assays: 1827 (Project Summary), 1813 (Primary HTS)]; assay type: functional
[2] = target: T1, Streptokinase A (Streptococcus pyogenes serotype M1, UniProt P10520); assay: S. pyogenes streptokinase expression inhibitors, potency, dose response, plasminogen activation absorbance, OD405 (AID 1914); assay type: functional, Streptococcus pyogenes M1 GAS;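 note: secreted streptokinase activity via plasminogen activation per viability signal from cell pellet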
T1 sequence (P10520 whole entry): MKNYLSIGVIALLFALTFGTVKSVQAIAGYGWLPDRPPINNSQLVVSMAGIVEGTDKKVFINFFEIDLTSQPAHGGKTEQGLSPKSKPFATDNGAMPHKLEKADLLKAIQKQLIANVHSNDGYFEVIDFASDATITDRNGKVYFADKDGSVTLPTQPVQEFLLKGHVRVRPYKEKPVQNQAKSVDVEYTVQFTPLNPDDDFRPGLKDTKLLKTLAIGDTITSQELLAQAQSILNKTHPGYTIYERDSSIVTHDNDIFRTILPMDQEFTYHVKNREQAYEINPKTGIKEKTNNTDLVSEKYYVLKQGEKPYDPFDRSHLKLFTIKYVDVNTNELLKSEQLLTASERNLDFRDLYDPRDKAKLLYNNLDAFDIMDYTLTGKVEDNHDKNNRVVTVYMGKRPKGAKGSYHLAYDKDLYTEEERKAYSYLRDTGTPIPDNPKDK

[3] = inhibitors of intracellular T. cruzi replication, confirmation, NIH3T3 host cells, beta-gal luminescence (AID 2044); assay type: functional, cell-based;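 note: intracellular parasites grown in NIH/3T3 mouse fibroblasts as host cells; luminescent beta-galactosidase reporter signal from transgenic T. cruzi replicating inside host cells; inhibitors lower the luminescence signal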
[4] = system: Streptococcus; assay: Group A Streptococcus viability loss, dose response, counter-screen for streptokinase expression inhibitor project, luminescence, BacTiterGlo (AID 1915); assay type: functional, organism-based;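 note: potency for reduction of bacterial viability or growth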
[5] = target: Exodeoxyribonuclease V (Escherichia coli (strain K12), UniProt P04993+P07648+P08394); assay: E. coli RecBCD inhibitors, dose response, counter-screen for AddAB inhibitor project, absorbance, V66 E. coli, mutant T4 phage (AID 492957); assay type: functional, cell-based, Escherichia coli str. K-12 substr. MG1655
Exodeoxyribonuclease V, sequence (P04993 whole entry): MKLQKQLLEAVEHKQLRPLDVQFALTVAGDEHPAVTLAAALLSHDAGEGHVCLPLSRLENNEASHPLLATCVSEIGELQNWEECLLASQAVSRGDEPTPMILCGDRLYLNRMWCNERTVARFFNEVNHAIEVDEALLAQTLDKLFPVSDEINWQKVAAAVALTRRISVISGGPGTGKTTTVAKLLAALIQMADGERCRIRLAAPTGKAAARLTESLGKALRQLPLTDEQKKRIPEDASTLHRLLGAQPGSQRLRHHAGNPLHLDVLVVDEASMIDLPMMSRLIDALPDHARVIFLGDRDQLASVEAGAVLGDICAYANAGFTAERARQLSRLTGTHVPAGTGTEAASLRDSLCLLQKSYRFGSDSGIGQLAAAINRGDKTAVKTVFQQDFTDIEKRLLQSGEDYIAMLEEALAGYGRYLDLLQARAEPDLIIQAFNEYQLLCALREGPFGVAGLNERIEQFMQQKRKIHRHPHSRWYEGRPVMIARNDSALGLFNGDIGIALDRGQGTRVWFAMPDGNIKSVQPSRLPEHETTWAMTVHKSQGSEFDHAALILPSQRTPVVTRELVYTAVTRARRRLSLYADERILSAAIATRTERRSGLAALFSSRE
Exodeoxyribonuclease V, sequence (P07648 whole entry): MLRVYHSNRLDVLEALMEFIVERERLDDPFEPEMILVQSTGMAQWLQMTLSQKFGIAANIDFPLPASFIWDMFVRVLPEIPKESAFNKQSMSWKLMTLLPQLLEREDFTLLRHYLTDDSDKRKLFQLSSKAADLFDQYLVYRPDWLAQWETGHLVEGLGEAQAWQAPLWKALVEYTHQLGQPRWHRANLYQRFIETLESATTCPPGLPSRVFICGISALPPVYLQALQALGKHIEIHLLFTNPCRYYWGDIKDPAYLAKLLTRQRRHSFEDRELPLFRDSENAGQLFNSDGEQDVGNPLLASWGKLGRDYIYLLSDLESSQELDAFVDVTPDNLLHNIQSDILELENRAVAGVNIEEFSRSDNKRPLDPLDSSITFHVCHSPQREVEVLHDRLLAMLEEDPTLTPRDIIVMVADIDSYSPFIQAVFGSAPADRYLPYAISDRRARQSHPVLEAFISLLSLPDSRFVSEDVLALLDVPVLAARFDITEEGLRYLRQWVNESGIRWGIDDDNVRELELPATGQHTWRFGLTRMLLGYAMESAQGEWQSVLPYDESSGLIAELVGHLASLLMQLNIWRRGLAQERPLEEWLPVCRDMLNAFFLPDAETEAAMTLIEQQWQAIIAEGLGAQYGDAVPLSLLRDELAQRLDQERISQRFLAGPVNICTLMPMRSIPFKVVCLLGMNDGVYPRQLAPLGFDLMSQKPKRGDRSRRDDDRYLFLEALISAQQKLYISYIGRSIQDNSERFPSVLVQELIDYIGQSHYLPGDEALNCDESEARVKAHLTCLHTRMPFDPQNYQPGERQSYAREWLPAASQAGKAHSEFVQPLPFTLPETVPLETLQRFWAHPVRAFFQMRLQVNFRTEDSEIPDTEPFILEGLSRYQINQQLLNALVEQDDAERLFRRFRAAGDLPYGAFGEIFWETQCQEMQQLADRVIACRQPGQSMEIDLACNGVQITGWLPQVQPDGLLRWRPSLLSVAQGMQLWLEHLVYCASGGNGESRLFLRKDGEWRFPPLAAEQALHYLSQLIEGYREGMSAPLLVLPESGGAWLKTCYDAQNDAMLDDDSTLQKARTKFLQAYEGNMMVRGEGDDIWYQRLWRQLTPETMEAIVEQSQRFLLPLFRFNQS
Exodeoxyribonuclease V, sequence (P08394 whole entry): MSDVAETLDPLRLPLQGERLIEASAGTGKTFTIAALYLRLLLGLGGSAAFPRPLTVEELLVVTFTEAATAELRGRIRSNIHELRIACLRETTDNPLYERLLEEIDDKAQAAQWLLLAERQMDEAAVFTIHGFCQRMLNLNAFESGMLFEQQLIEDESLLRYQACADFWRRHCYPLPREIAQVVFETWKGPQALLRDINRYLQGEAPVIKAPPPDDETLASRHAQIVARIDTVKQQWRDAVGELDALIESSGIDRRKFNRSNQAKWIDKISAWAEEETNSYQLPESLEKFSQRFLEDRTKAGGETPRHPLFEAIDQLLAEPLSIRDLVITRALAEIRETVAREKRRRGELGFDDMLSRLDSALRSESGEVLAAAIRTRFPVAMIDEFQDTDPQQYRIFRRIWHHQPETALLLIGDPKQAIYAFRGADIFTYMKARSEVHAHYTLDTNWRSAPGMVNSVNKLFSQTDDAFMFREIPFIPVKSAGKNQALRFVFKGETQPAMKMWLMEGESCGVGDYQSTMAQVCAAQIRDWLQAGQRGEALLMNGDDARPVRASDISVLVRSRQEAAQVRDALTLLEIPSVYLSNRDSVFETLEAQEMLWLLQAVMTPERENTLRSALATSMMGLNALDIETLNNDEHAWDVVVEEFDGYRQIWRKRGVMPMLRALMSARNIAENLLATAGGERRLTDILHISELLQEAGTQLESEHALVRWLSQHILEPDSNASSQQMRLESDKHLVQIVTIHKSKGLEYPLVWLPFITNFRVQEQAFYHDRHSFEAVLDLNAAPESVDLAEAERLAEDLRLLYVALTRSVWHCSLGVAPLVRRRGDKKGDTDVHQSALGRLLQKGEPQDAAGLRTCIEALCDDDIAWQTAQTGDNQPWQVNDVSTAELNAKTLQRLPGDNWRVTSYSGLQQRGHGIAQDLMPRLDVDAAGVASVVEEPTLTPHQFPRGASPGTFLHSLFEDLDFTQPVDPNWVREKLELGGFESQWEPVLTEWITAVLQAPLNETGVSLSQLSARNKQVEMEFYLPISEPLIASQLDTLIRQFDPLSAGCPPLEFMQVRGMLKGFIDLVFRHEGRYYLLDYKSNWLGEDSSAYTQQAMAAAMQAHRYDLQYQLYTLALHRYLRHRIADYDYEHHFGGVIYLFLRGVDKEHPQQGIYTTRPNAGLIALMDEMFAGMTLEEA

[6] = Counterscreen for AddAB inhibitors: absorbance-based bacterial cell-based high throughput dose response assay for inhibitors of bacterial viability. [Related pubchem assays (depositor defined):AID435030, AID449728, AID449731, AID488942, AID488955, AID488956]; assay type: functional
[7] = system: HEK293; assay: inhibitors of LMP1-driven NF-kB reporter, dose response, cell-based, HEK293, luciferase, cherry-pick (AID 588343); assay type: functional; conditions: Homo sapiens
[8] = target: Phospholipase A2 (Homo sapiens, UniProt P04054); assay: PLA2 enzyme inhibitors, dose response, counter-screen for ATG4B inhibitor project, biochemical, set 2 (AID 588586); assay type: functional
Phospholipase A2, sequence (P04054 whole entry): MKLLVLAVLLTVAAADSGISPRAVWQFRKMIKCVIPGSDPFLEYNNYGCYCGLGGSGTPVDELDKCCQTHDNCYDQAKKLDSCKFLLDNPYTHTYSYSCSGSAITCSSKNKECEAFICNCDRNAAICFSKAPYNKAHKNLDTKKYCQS

[9] = target: ATP-dependent molecular chaperone HSP82 (Candida albicans (strain WO-1) (Yeast), UniProt C4YTQ8); assay: loss of DOC-induced GRE-beta-galactosidase reporter signal, dose response, Hsp90 inhibitor project, S. cerevisiae, luminescence (AID 2400); assay type: functional, cell-based;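 note: beta-galactosidase luminescence from glucocorticoid response element reporter as proxy for Hsp90 function; inhibitor potency where signal loss means Hsp90 inhibition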
ATP-dependent molecular chaperone HSP82, sequence (C4YTQ8 whole entry): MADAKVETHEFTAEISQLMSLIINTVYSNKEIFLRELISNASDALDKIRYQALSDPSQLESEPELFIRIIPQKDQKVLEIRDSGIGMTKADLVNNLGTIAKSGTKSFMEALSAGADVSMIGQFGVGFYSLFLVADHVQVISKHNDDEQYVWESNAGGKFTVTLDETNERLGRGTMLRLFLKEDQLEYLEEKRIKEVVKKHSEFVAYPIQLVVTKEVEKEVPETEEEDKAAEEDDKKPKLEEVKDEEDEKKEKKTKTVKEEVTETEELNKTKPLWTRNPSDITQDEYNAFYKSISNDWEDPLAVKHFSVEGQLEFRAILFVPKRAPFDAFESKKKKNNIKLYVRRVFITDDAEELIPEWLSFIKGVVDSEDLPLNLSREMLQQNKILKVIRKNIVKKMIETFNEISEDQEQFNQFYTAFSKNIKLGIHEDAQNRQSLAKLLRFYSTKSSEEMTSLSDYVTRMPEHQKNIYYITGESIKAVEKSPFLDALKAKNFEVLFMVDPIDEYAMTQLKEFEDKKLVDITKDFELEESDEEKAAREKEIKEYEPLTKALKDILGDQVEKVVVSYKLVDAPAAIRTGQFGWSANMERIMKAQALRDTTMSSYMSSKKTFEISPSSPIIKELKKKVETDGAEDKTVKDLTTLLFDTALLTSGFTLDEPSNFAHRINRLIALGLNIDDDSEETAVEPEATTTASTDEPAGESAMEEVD

[10] = miR-122 activators in hepatoma reporter cells, dose response, cell-based, Huh7 psiCHECK-miR122, Renilla luciferase, cherry-picked (AID 651956); assay type: functional;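 note: huh7 hepatoma cells stably carrying a psiCHECK-2 miR-122 sensor plasmid; renilla luciferase signal reporting endogenous miR-122 activity after 48 h compound exposure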
[11] = target: Eukaryotic translation initiation factor 4E (Mus musculus, UniProt P63073); assay: eIF4E–eIF4G protein interaction inhibitors, dose response, biochemical, TR-FRET (AID 855); assay type: functional;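 note: potency for disrupting eIF4E binding to eIF4GI seen as loss of FRET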
Eukaryotic translation initiation factor 4E, sequence (P63073 whole entry): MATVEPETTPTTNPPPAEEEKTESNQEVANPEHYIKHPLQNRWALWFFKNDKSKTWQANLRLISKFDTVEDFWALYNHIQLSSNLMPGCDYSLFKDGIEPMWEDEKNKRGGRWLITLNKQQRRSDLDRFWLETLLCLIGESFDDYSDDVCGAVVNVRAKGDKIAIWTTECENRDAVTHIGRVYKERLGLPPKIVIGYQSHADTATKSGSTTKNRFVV

[12] = target: Cytochrome P450 3A4 (Homo sapiens, UniProt P08684);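 note: CYP3A4 tested as one member of a cytochrome P450 panel screen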
Cytochrome P450 3A4, sequence (P08684 whole entry): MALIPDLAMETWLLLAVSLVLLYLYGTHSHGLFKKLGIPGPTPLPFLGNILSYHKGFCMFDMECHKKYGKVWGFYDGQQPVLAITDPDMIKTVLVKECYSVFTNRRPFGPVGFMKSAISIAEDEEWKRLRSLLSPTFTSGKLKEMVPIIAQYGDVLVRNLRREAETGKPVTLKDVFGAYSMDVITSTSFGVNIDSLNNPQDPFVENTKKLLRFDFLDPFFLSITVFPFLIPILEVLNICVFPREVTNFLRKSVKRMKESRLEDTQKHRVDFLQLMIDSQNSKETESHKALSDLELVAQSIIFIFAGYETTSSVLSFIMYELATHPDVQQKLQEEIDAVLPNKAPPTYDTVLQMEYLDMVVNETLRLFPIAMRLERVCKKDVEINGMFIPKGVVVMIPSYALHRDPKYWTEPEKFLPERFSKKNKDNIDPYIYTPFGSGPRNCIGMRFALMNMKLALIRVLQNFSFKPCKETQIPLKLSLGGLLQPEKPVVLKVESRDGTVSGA

[13] = target: T2, Mannose-6-phosphate isomerase (Homo sapiens, UniProt P34949); assay: human PMI inhibitors, high substrate, primary screen, biochemical, fluorescence intensity, high mannose 6-phosphate (AID 1220)
T2 sequence (P34949 whole entry): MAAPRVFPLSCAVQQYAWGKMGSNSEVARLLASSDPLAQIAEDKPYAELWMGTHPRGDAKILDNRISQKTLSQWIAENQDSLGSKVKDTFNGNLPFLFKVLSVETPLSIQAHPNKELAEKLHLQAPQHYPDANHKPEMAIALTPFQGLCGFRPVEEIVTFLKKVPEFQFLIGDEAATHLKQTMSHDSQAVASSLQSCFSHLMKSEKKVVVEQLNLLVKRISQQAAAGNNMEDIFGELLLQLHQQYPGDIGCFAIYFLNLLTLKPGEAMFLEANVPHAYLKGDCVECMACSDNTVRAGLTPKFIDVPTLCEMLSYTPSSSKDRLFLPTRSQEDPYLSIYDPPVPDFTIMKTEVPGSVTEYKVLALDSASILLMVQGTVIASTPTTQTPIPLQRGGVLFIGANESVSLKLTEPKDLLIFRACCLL

[14] = target: T3, Insulin-degrading enzyme (Homo sapiens, UniProt P14735); assay: activators of endogenous IDE in HEK cells, dose response, cell-based, fluorescence polarization (AID 588439); assay type: functional
T3 sequence (P14735 whole entry): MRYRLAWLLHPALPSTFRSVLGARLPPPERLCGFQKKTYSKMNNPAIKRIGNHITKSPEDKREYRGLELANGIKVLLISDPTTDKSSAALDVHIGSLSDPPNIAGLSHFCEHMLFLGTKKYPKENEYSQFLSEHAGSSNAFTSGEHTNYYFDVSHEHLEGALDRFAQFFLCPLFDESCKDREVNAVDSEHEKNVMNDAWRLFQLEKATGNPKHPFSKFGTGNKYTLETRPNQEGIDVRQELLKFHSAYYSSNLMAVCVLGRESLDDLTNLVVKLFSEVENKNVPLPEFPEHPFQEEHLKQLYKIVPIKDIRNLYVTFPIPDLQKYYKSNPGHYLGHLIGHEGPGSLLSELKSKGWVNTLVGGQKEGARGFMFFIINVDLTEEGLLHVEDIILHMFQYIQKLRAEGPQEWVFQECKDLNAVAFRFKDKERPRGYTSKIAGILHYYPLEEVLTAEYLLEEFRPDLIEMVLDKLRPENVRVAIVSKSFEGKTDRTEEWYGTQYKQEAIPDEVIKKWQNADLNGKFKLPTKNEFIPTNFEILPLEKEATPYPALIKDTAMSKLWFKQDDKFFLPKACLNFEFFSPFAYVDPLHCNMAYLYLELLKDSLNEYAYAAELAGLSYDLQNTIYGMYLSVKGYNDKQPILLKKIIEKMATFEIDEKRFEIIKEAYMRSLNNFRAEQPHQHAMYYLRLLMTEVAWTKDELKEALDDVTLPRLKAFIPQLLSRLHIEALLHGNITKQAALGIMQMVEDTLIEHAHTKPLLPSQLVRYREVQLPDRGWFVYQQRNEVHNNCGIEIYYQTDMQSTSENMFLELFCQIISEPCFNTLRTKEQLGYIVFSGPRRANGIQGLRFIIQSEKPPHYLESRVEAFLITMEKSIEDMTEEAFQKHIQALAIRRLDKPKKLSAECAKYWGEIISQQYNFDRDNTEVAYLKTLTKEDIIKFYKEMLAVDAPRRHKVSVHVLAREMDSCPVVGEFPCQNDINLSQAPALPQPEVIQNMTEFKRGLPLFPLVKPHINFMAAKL

[15] = target: Dual specificity tyrosine-phosphorylation-regulated kinase 1A (Rattus norvegicus, UniProt Q63470); assay type: biochemical, Homo sapiens

Q: For `Oc1ccc2ccccc2c1/C=N/Nc1nnc(-c2ncc[nH]2)c2ccccc12`, which EC50 [1] is on record?
A: Its EC50 is 292 nM (active).

Q: What about the EC50 [2] of the same compound?
A: Its EC50 is 5.52 µM (active).

Q: What about the EC50 [3] of the same compound?
A: Its EC50 is 412 nM (active).

Q: And the EC50 [4]?
A: Its EC50 is 5.84 µM (active).

Q: And the IC50 [5]?
A: The IC50 was > 119 µM (inactive).

Q: And the IC50 [6]?
A: Its IC50 is > 119 µM (inactive).

Q: And the AC50 [7]?
A: Its AC50 is 1.79 µM (active).

Q: What about the IC50 [8] of the same compound?
A: The IC50 was 2.47 µM (active).

Q: And the EC50 [9]?
A: Its EC50 is 3.23 µM (active).

Q: What about the AC50 [10] of the same compound?
A: The AC50 was 37.6 µM (active).

Q: What does the source list for `CC(C)C(C(=O)O)N1C(=O)/C(=C/C=C/c2ccco2)SC1=S` (stereo not given)?
A: IC50 [11]: 11.3 µM (active); AC50 [12]: 31.6 µM (inconclusive)

Q: What does the source list for `O=C1CCN2C=Nc3cccc4ccc1c2c34`?
A: IC50 [13]: > 58 µM (not active); EC50 [14]: > 54.7 µM (inactive); AC50 [15]: 3 µM (active)
